Literature values, collected in patent US10611818B2, “MHC multimers in tuberculosis diagnostics, vaccine and therapeutics” (priority 2007, dated 2020).

System: T2 cells
Conditions: CD8 T-cell clones 8, 9, 10, 11 and 12

## GLQHWVPEL [BA4697-105, irrelevant peptide used to load T2 target cells]
  lysis of T2 cells pulsed with peptide: without killing
